Test results: US20240067693A1, “POLYPEPTIDES AND USES THEREOF” (MEDIMMUNE LIMITED, priority 2020, published 2024)
Numbered stars: 1 amine (or outer) side, 2 acyl side, 3 side chain; on linkers, the order of the positions; unused ones are H or OH. Bridge positions count the residues as written; N and C are the ends. Square brackets hold non-standard residues; d marks the D form. Side chains are listed from the residue outwards. Peptide text beside a SMILES is read from it. * marks the point of attachment. C18 diacid = O=C(O)CCCCCCCCCCCCCCCCC(=O)*; γGlu = O=C(O)[C@H](CCC(=O)[*:2])N[*:1]; Aib = CC(C)(N)C(=O)O

How the values were obtained:
[1] = target: T1, human calcitonin receptor (hCTR) (Homo sapiens, UniProt P30988); assay: cAMP production in 1321N1 cells with stable recombinant expression of human calcitonin receptor (hCTR); assay type: cell-based; conditions: cAMP, 1321N1 cells, assay buffer with 0.1% BSA; read-out: EC50 (pM) hCTR
T1 construct: expressed in transfected cells
T1 sequence (P30988 25-474): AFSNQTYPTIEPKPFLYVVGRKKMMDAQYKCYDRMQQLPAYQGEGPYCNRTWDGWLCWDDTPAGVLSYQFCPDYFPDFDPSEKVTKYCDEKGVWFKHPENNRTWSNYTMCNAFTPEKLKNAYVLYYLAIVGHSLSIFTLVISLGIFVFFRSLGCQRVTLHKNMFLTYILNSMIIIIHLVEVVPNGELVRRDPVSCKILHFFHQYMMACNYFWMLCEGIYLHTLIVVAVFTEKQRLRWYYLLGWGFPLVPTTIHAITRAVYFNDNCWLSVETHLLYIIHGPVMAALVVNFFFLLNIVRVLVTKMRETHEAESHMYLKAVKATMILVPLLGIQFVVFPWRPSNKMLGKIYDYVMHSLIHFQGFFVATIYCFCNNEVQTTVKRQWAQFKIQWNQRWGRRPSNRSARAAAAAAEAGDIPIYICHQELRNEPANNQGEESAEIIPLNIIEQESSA
Summary of the method: (§1)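 EC50 values come from 4-parameter logistic fits of HTRF cAMP signal, normalised to maximal calcitonin or amylin effect. Peptides were tested in duplicate for 30 min at RT in IBMX-containing (0.5 mM) BSA/HEPES buffer pH 7.4 on stable 1321N1 (human CTR, AMYR3) or HEK (rat CTR, AMYR3) lines.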

[2] = target: T2, human amylin receptor (calcitonin receptor co-expressed with receptor activity modifying protein, RAMP3) (hAMYR3) (Homo sapiens, UniProt O60896+P30988); assay: cAMP production in 1321N1 cells with stable recombinant expression of human amylin receptor (hAMYR3); assay type: cell-based; conditions: for Ratio (selectivity hAMYR vs hCTR, ratio of EC50 values at the two receptors): EC50 hCTR / EC50 hAMYR3; for EC50: cAMP, 1321N1 cells, assay buffer with 0.1% BSA, read-out: EC50 (pM) hAMYR3
T2 construct: expressed in transfected cells
T2 sequence (P30988 25-474): T1 sequence (P30988 25-474)
T2 sequence (O60896 24-148 partner): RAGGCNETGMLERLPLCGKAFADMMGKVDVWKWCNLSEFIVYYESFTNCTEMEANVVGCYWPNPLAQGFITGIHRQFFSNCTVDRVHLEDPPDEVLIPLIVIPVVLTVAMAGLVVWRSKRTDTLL
Summary of the method: as §1

`CC[C@H](C)[C@H](NC(=O)[C@@H]1CCCN1C(=O)CNC(=O)[C@H](Cc1ccccc1)NC(=O)[C@H](CC(N)=O)NC(=O)C(C)(C)NC(=O)[C@H](CO)NC(=O)[C@H](CO)NC(=O)[C@H](Cc1c[nH]cn1)NC(=O)[C@@H](NC(=O)[C@H](CC(C)C)NC(=O)[C@H](Cc1ccccc1)NC(=O)[C@H](CC(N)=O)NC(=O)[C@H](C)NC(=O)[C@H](CC(C)C)NC(=O)[C@H](CCCNC(=N)N)NC(=O)[C@H](CCC(N)=O)NC(=O)[C@@H](NC(=O)[C@H](C)NC(=O)[C@@H]1CSSC[C@H](NC(=O)[C@@H](N)CCCCNC(=O)CC[C@H](NC(=O)CCCCCCCCCCCCCCCCC(=O)O)C(=O)O)C(=O)N[C@@H](CC(N)=O)C(=O)N[C@@H]([C@@H](C)O)C(=O)N[C@@H](C)C(=O)N[C@@H]([C@@H](C)O)C(=O)N1)[C@@H](C)O)C(C)C)C(=O)N[C@@H](CC(C)C)C(=O)N1CCC[C@H]1C(=O)N1CCC[C@H]1C(=O)N[C@H](C(=O)N[C@@H](CCCNC(=N)N)C(=O)N[C@H](C(=O)NCC(=O)N[C@@H](CO)C(=O)N[C@@H](CC(N)=O)C(=O)N[C@H](C(=O)N[C@@H](Cc1ccc(O)cc1)C(N)=O)[C@@H](C)O)C(C)C)[C@@H](C)O` [Peptide 63, K(γE-C18diacid)[CNTATC]ATQRLANFLVHSS(Aib)NFGPILPPTRVGSNTY-amide] (H-K([γGlu-C18 diacid])CNTATCATQRLANFLVHSS[Aib]NFGPILPPTRVGSNTY-NH2; disulfide 2-7; N-terminus assumed) was tested, and the EC50 [1] was 375 pM, the “Ratio (selectivity hAMYR vs hCTR, ratio of EC50 values at the two receptors)” value [2] was 5 and the EC50 [2] was 76 pM.
For `CC[C@H](C)[C@H](NC(=O)[C@@H]1CCCN1C(=O)CNC(=O)[C@H](Cc1ccccc1)NC(=O)[C@H](CC(N)=O)NC(=O)C(C)(C)NC(=O)[C@H](CO)NC(=O)[C@H](CO)NC(=O)[C@H](Cc1c[nH]cn1)NC(=O)[C@@H](NC(=O)[C@H](CC(C)C)NC(=O)[C@H](Cc1ccccc1)NC(=O)[C@H](CC(N)=O)NC(=O)[C@H](C)NC(=O)[C@H](CC(C)C)NC(=O)[C@H](CCCNC(=N)N)NC(=O)[C@H](CCC(N)=O)NC(=O)[C@@H](NC(=O)[C@H](C)NC(=O)[C@@H]1CSSC[C@H](NC(=O)[C@@H](N)CCCCNC(=O)CC[C@H](NC(=O)CC[C@H](NC(=O)CCCCCCCCCCCCCCCCC(=O)O)C(=O)O)C(=O)O)C(=O)N[C@@H](CC(N)=O)C(=O)N[C@@H]([C@@H](C)O)C(=O)N[C@@H](C)C(=O)N[C@@H]([C@@H](C)O)C(=O)N1)[C@@H](C)O)C(C)C)C(=O)N[C@@H](CC(C)C)C(=O)N1CCC[C@H]1C(=O)N1CCC[C@H]1C(=O)N[C@H](C(=O)N[C@@H](CCCNC(=N)N)C(=O)N[C@H](C(=O)NCC(=O)N[C@@H](CO)C(=O)N[C@@H](CC(N)=O)C(=O)N[C@H](C(=O)N[C@@H](Cc1ccc(O)cc1)C(N)=O)[C@@H](C)O)C(C)C)[C@@H](C)O` [Peptide 67, K(γE-γE-C18diacid)[CNTATC]ATQRLANFLVHSS(Aib)NFGPILPPTRVGSNTY-amide] (H-K([γGlu-γGlu-C18 diacid])CNTATCATQRLANFLVHSS[Aib]NFGPILPPTRVGSNTY-NH2; disulfide 2-7; N-terminus assumed), the EC50 [1] was 4010 pM, the “Ratio (selectivity hAMYR vs hCTR, ratio of EC50 values at the two receptors)” value [2] was 30 and the EC50 [2] was 132 pM.
In the case of `CC[C@H](C)[C@H](NC(=O)[C@@H]1CCCN1C(=O)CNC(=O)[C@H](Cc1ccccc1)NC(=O)[C@H](CC(N)=O)NC(=O)C(C)(C)NC(=O)[C@H](CO)NC(=O)[C@H](CO)NC(=O)[C@H](Cc1c[nH]cn1)NC(=O)[C@@H](NC(=O)[C@H](CC(C)C)NC(=O)[C@H](Cc1ccccc1)NC(=O)[C@H](CC(N)=O)NC(=O)[C@H](C)NC(=O)[C@H](CC(C)C)NC(=O)[C@H](CCCNC(=N)N)NC(=O)[C@H](CCC(N)=O)NC(=O)[C@@H](NC(=O)[C@H](C)NC(=O)[C@@H]1CSSC[C@H](NC(=O)CC[C@H](NC(=O)CCCCCCCCCCCCCCCCC(=O)O)C(=O)O)C(=O)N[C@@H](CC(N)=O)C(=O)N[C@@H]([C@@H](C)O)C(=O)N[C@@H](C)C(=O)N[C@@H]([C@@H](C)O)C(=O)N1)[C@@H](C)O)C(C)C)C(=O)N[C@@H](CC(C)C)C(=O)N1CCC[C@H]1C(=O)N1CCC[C@H]1C(=O)N[C@H](C(=O)N[C@@H](CCCNC(=N)N)C(=O)N[C@H](C(=O)NCC(=O)N[C@@H](CO)C(=O)N[C@@H](CC(N)=O)C(=O)N[C@H](C(=O)N[C@@H](Cc1ccc(O)cc1)C(N)=O)[C@@H](C)O)C(C)C)[C@@H](C)O` [Peptide 68, (C18diacid-γE-[CNTATC]ATQRLANFLVHSS(Aib)NFGPILPPTRVGSNTY-amide] ({C18 diacid-γGlu}-CNTATCATQRLANFLVHSS[Aib]NFGPILPPTRVGSNTY-NH2; disulfide 1-6), the EC50 [1] is reported as 1770 pM, the “Ratio (selectivity hAMYR vs hCTR, ratio of EC50 values at the two receptors)” value [2] is reported as 9 and the EC50 [2] is reported as 192 pM.
For `CC[C@H](C)[C@H](NC(=O)[C@@H]1CCCN1C(=O)CNC(=O)[C@H](Cc1ccccc1)NC(=O)[C@H](CC(N)=O)NC(=O)C(C)(C)NC(=O)[C@H](CO)NC(=O)[C@H](CO)NC(=O)[C@H](Cc1c[nH]cn1)NC(=O)[C@@H](NC(=O)[C@H](CC(C)C)NC(=O)[C@H](Cc1ccccc1)NC(=O)[C@H](CC(N)=O)NC(=O)[C@H](C)NC(=O)[C@H](CC(C)C)NC(=O)[C@H](CCCNC(=N)N)NC(=O)[C@H](CCC(N)=O)NC(=O)[C@@H](NC(=O)[C@H](C)NC(=O)[C@@H]1CSSC[C@H](NC(=O)[C@@H](N)CCCCNC(=O)CC[C@H](NC(=O)CC[C@H](NC(=O)CCCCCCCCCCCCCCCCC(=O)O)C(=O)O)C(=O)O)C(=O)N[C@@H](CC(N)=O)C(=O)N[C@@H]([C@@H](C)O)C(=O)N[C@@H](C)C(=O)N[C@@H]([C@@H](C)O)C(=O)N1)[C@@H](C)O)C(C)C)C(=O)N[C@@H](CC(C)C)C(=O)N1CCC[C@H]1C(=O)N1CCC[C@H]1C(=O)N[C@H](C(=O)N[C@@H](CC(N)=O)C(=O)N[C@H](C(=O)NCC(=O)N[C@@H](CO)C(=O)N[C@@H](CCCNC(=N)N)C(=O)N[C@H](C(=O)N[C@@H](Cc1ccc(O)cc1)C(N)=O)[C@@H](C)O)C(C)C)[C@@H](C)O` [Peptide 72, K(γE-γE-C18diacid)[CNTATC]ATQRLANFLVHSS(Aib)NFGPILPPTNVGSRTY-amide] (H-K([γGlu-γGlu-C18 diacid])CNTATCATQRLANFLVHSS[Aib]NFGPILPPTNVGSRTY-NH2; disulfide 2-7; N-terminus assumed), the EC50 [1] was 4000 pM, the “Ratio (selectivity hAMYR vs hCTR, ratio of EC50 values at the two receptors)” value [2] was 18 and the EC50 [2] was 227 pM.
